B1: OPG: secreted decoy receptor that can reduce the RANKL activity (protein, UniProt O00300 22-401, looked up)
Tumor necrosis factor …: ETFPPKYLHYDEETSHQLLCDKCPPGTYLKQHCTAKWKTVCAPCPDHYYTDSWHTSDECLYCSPVCKELQYVKQECNRTHNRVCECKEGRYLEIEFCLKHRSCPPGFGVVQAGTPERNTVCKRCPDGFFSNETSSKAPCRKHTNCSVFGLLLTQKGNATHDNICSGNSESTQKCGIDVTLCEEAFFRFAVPTKFTPNWLSVLVDNLPGTKVNAESVERIKRQHSSQEQTFQLLKLWKHQNKDQDIVKKIIQDIDLCENSVQRHIGHANLTFEQLRSLMESLPGKKVGAEDIEKTIKACKPSDQILKLLSLWRIKNGDQDTLKGLMHALKHSKTYHFPKTVTQSLKKTIRFLHSFTMYKLYQKLFLEMIGNQVQSVKISCL

Key:
RANKL = RANKL expression in purified mammary epithelial cells (qRT-PCR, Western blot); type: in vivo, mouse; settings: nulliparous wild type females, 3 days after implantation/oral gavage
Procedure: a,b, MPA induces RANKL expression in mammary epithelial cells. Nulliparous wild type females were treated with oral gavage of DMBA or oil vehicle, s.c. implanted with slow-release MPA pellets, or treated with sham surgery. a, RANKL mRNA was determined in purified mammary epithelial cells by qRT-PCR 3 days after implantation/oral gavage. Data are shown as fold change compared to sham treatment+/−sem. n=3 mice per group. b, Expression of soluble (s) RANKL protein (19 kDa) was assayed on cell lysates from purified mammary epithelial cells by Western blot 3 days after treatment with oil vehicle, DMBA, MPA, or sham surgery. β-actin is shown as a loading control. […] Data are shown as percentage of tumor-free mice after the last DMBA challenge. No significant difference was found between the Cre+ and the Cre− control groups. Median tumor onset for Cre^+ controls was 9 days, for Cre^− controls 11 days, and for RANK^Δmam females 30 days after the last DMBA treatment. d, Representative Southern blot of MPA/DMBA-induced mammary tumors derived from RANK^flox/+; MMTV-Cre+ and RANK^flox/Δ; MMTV-Cre+ (RANK^Δmam) females. […]
Total RNA of tumors was prepared using the RNeasy Mini Kit (Qiagen), according to the manufacturer's instructions. Total RNA (2 μg) was subjected to quantitative (q)RT-PCR analysis. […]

[1] = test system: human SKBR3 breast cancer cells; test: Soft-Agar Colony Formation Assay; type: cell-based; settings: OPG (1 μg/ml) with RANKL (1 μg/ml)
Procedure: a, Western blotting for phosphorylated (P) IKKα, total IKKα, phosphorylated (P) p65 NFκB, total p65 NFκB, phosphorylated (P) IκBα, and total IκBα in isolated primary mouse mammary gland epithelial cells (MECs) in response to RANKL stimulation (1 μg/ml). […] is shown as loading control. b, Western blotting for IKKα, IKKβ, IKKγ, phosphorylated (P) p65 NFκB, total p65 NFκB, phosphorylated (P) IκBα, and total IκBα in pooled late stage mammary adenocarconimas (n=4 for each lane) that developed in control, RANK^Δmam, and IKKα^Δmam females. β-actin is shown as loading control c, Expression of RANK, CyclinD1, and p21 mRNA in late stage mammary adenocacinomas that developed in control, RANK^Δmam, and IKKα^Δmam females. Expression was determined by qRT-PCR. Data are mean values+/−sem. n=4 per group. d, Soft-Agar Colony Formation Assay. Growth of human SKBR3 breast cancer cells in soft agar in response to stimulation with RANKL (1 μg/ml) or EGF (100 ng/ml). […] Apoptosis was detected by immunostaining for active Caspase 3. f, Apoptotic nuclei of epithelial cells (arrows) are shown for representative mammary gland sections. Magnifications ×40. g, Quantification of mammary epithelial apoptosis. A minimum of 5000 nuclei was counted for each mouse. […]

Molecule	RANKL mRNA and protein expression in mammary epithelial cells (RANKL)	RANKL-induced colony formation in soft agar [1]
Cc1c2ccccc2c(C)c2c1ccc1ccccc12 [DMBA, dimethylbenz[a]anthracene]	not	–
B1	–	prevented

— patent US20130316374A1, “BREAST CANCER DIAGNOSTICS” (IMBA - INSTITUT FUR MOLEKULARE BIOTECHNOLOGIE GMBH, priority 2010, published 2013)
